Experimental data: patent US20260297118A1, “SUBSTITUTED PYRIMIDINONE AND AZAPYRIMIDINONE COMPOUNDS, COMPOSITIONS, AND USES THEREOF” (LAKEWOOD AMEDEX, INC., priority 2023, published 2026)

Legend:
Type in all cases: cell-based
Conditions in all cases: pH 4-5, 18 to 24 hours
Escherichia coli (0102) = assay: MIC, broth microdilution, Escherichia coli (0102)
Experimental: (§1) MIC testing is conducted using the broth (Mueller Hinton Broth) microdilution procedures relevant to each organism group as established by the Clinical and Laboratory Standards Institute (CLSI; 3-7). MIC plates are prepared in accordance with CLSI (3-7). To prepare the test plates, automated liquid handlers are used to conduct serial dilutions and liquid transfers. Automated liquid handlers utilized in this study include the Multidrop 384 (Labsystems, Helsinki, Finland) and the Biomek 2000 (Beckman Coulter, Fullerton CA). The solution is diluted to desired pH using 1 M Citric Acid or 1 M NaOH buffer. A standardized inoculum of each test organism is prepared per CLSI methods (3, 5-7) to equal a 0.5 McFarland standard in the appropriate media followed by an additional 1:20 dilution (1:10 for anaerobes).
(§2) The plates are then inoculated with 10 μL of the diluted 0.5 McFarland suspension using the Biomek 2000 from low to high drug concentration, resulting in a final concentration of approximately 5×10^5 CFU/mL per well. An un-inoculated plate is incubated for the purpose of assessing solubility of the drug in the test media. The plates are stacked 3 to 4 high, covered with a sterile lid on the top plate, and incubated for 18 to 24 hours according to CLSI. The MIC is recorded as the lowest concentration of respective compound that inhibited visible growth of the organism.

Escherichia coli (6260) = assay: MIC, broth microdilution, Escherichia coli (6260)
Experimental: as §1, §2

Escherichia coli (6098) = assay: MIC, broth microdilution, Escherichia coli (6098)
Experimental: as §1, §2

Escherichia coli (6258) = assay: MIC, broth microdilution, Escherichia coli (6258)
Experimental: as §1, §2

Escherichia coli (6259) = assay: MIC, broth microdilution, Escherichia coli (6259)
Experimental: as §1, §2

[1] = system: Pseudomonas aeruginosa (0103); assay: MIC, broth microdilution, Pseudomonas aeruginosa (0103)
Experimental: as §1, §2

[2] = system: Pseudomonas aeruginosa (6160); assay: MIC, broth microdilution, Pseudomonas aeruginosa (6160)
Experimental: as §1, §2

[3] = system: Pseudomonas aeruginosa (6234); assay: MIC, broth microdilution, Pseudomonas aeruginosa (6234)
Experimental: as §1, §2

[4] = system: Pseudomonas aeruginosa (6326); assay: MIC, broth microdilution, Pseudomonas aeruginosa (6326)
Experimental: as §1, §2

[5] = system: Pseudomonas aeruginosa (6328); assay: MIC, broth microdilution, Pseudomonas aeruginosa (6328)
Experimental: as §1, §2

`CCCCOP(=O)(O)OC[C@H]1O[C@@H](n2ccc(N)nc2=O)C[C@@H]1O` [R-1, (2R,3S,5R)-5-(4-amino-2-oxopyrimidin-1(2H)-yl)-3-hydroxytetrahydrofuran-2-methyl butyl phosphate] showed an MIC (Escherichia coli (0102)) of 50 mg/mL, an MIC (Escherichia coli (6260)) of 50 mg/mL and an MIC (Escherichia coli (6098)) of 50 mg/mL. The MIC (Escherichia coli (6258)) was 50 mg/mL, the MIC (Escherichia coli (6259)) was 50 mg/mL and the MIC [1] was 25 mg/mL. For the same compound, the MIC [2] was 25 mg/mL, the MIC [3] was 25 mg/mL and the MIC [4] was 25 mg/mL. It also gave an MIC [5] of 25 mg/mL.

Work on `CCCCOP(=O)(O)OC[C@H]1O[C@@H](n2ccc(N)nc2=O)[C@H](OC)[C@@H]1O` [R-5, (2R,3S,4R,5R)-5-(4-amino-2-oxopyrimidin-1(2H)-yl)-3-hydroxy-4-methoxy-tetrahydrofuran-2-methyl butyl phosphate] yielded an MIC (Escherichia coli (0102)) of 50 mg/mL, an MIC (Escherichia coli (6260)) of 100 mg/mL and an MIC (Escherichia coli (6098)) of 100 mg/mL. For the same compound, the MIC (Escherichia coli (6258)) was 100 mg/mL, the MIC (Escherichia coli (6259)) was 50 mg/mL and the MIC [1] was 25 mg/mL. It also gave an MIC [2] of 25 mg/mL, an MIC [3] of 25 mg/mL and an MIC [4] of 25 mg/mL. For the same compound, the MIC [5] was 25 mg/mL.
